Columns and labels:
[1] = molecular target: DNA-directed RNA polymerase, mitochondrial (Homo sapiens) (UniProt O00411); assay: Inhibition of human POLRMT using 5'-P32-RNA/DNA hybrid assessed as incorporation of UTP at 100 uM after 2 hrs by scintillation counting method relative to control; parameters: scale not given: the % may be the effect or the level left
[2] = Inhibition of RNA polymerase 2 isolated from human HeLa cell nuclear extract assessed as decrease in incorporation of P32-alpha-CTP after 2 hrs by scintillation counting method; type: cell-free
[3] = Inhibition of human DNA polymerase gamma using 5' end radiolabeled 24nt DNA/36nt DNA as primer/template after 120 mins by PAGE analysis
[4] = molecular target: T1, DNA polymerase alpha catalytic subunit (Homo sapiens, UniProt P09884); assay: Inhibition of human DNA polymerase alpha using 5' end radiolabeled 24nt DNA/48nt DNA as primer/template after 5 mins by PAGE analysis
T1 sequence (P09884 whole entry): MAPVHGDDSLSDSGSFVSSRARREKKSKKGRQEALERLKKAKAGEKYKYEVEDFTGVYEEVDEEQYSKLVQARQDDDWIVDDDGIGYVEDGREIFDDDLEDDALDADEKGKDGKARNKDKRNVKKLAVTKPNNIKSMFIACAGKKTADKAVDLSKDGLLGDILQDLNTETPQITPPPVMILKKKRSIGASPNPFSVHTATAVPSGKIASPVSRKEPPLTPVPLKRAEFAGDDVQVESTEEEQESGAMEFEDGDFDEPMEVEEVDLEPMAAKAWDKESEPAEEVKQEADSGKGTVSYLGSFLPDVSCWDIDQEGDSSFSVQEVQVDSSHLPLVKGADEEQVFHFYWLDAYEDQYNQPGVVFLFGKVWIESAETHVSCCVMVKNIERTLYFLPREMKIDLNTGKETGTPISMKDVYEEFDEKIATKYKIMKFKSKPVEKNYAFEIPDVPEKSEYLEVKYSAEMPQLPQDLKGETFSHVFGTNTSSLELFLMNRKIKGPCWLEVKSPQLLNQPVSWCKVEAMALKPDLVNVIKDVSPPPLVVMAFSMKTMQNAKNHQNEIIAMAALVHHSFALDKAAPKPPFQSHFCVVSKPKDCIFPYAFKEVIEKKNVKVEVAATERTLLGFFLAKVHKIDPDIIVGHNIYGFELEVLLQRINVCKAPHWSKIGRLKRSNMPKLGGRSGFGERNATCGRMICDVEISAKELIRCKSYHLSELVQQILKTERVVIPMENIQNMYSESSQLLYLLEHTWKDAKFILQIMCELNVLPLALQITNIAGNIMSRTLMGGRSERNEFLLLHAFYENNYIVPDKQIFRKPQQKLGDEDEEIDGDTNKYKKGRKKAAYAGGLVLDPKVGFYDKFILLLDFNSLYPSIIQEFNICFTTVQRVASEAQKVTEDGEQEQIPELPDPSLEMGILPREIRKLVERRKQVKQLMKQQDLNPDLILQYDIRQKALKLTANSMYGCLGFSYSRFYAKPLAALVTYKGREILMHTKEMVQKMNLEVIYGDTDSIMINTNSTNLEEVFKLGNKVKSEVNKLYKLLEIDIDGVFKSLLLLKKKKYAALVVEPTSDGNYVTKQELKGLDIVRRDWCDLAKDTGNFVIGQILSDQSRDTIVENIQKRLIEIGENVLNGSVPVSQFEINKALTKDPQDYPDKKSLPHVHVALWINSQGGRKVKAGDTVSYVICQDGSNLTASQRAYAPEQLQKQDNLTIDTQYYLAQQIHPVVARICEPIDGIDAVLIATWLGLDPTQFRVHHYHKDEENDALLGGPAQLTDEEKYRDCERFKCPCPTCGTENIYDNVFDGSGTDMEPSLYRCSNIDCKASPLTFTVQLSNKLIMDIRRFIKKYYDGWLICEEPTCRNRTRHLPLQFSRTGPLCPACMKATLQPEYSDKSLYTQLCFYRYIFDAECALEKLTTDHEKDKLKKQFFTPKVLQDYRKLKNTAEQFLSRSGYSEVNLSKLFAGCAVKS

[5] = molecular target: DNA polymerase beta (Homo sapiens, UniProt P06746); assay: Inhibition of human DNA polymerase beta using 5' end radiolabeled 24nt DNA/48nt DNA as primer/template after 5 mins by PAGE analysis
[6] = test system: HepG2; assay: Mitochondrial toxicity in human HepG2 cells assessed as cytochrome c oxidase subunit 2 DNA levels at 50 uM measured on day 14 by RT-PCR method relative to nuclear beta-actin DNA levels; type: cell-based; conditions: hepg2, 50 µM
[7] = test system: cytochrome c oxidase subunit 2 DNA (mitochondrial DNA) levels; assay: Mitochondrial toxicity in human HepG2 cells assessed as inhibition of cytochrome c oxidase subunit 2 DNA levels at 25 uM measured on day 14 by RT-PCR method relative to nuclear beta-actin DNA levels; type: cell-based
[8] = test system: Hepatitis C virus; assay: Antiviral activity against HCV genotype 2a/k infected in human HuH7 cells assessed as inhibition of viral RNA replication after 96 hrs by RT-PCR method; type: functional, cell-based, Hepacivirus hominis; conditions: Huh-7, 96 h
[9] = molecular target: Cytochrome P450 3A4 (Homo sapiens, UniProt P08684); assay: Inhibition of human CYP3A4 using ketoconazole […]; type: ADME
[10] = test system: Hepatitis C virus; assay: Selectivity ratio of EC50 for HCV genotype 1b harboring NS5B S282T mutant to EC50 for HCV genotype 1b harboring wild type NS5B; type: functional, Hepacivirus hominis
[11] = test system: nuclear DNA levels; assay: Cytotoxicity against human HepG2 cells assessed as inhibition of nuclear DNA levels at 25 uM measured on day 14 by RT-PCR method relative to nuclear beta-actin DNA levels; type: cell-based; conditions: read-out: INH
[12] = test system: nuclear DNA levels; assay: in vitro; conditions: human, HepG2 cells
[13] = test system: Hepatitis C virus; assay: Antiviral activity against HCV genotype 1b harboring NS5B S282T mutant infected in human HuH7 cells assessed as inhibition of viral RNA replication after 4 days by luciferase reporter gene assay; type: functional, cell-based, Hepacivirus hominis; conditions: Huh-7, 96 h
[14] = Cytotoxicity against human CEM cells assessed as inhibition of cell proliferation after 4 days by MTT assay; type: cell-based, CCRF-CEM
[15] = Cytotoxicity against human HuH7 cells assessed as inhibition of cell proliferation after 4 days by MTS assay; type: cell-based, Huh-7
[16] = test system: Hepatitis C virus; assay: Antiviral activity against HCV genotype 1b infected in human HuH7 cells assessed as inhibition of viral RNA replication after 96 hrs by RT-PCR method; type: functional, cell-based, Hepacivirus hominis; conditions: Huh-7, 96 h
[17] = test system: cytochrome c oxidase subunit 2 DNA (mitochondrial DNA) levels; assay: Mitochondrial toxicity in human HepG2 cells assessed as inhibition of cytochrome c oxidase subunit 2 DNA levels measured on day 14 by RT-PCR method; type: cell-based
[18] = test system: Hepatitis C virus; assay: Antiviral activity against HCV genotype 1b harboring wild type NS5B infected in human HuH7 cells assessed as inhibition of viral RNA replication after 5 days by RT-PCR method; type: functional, cell-based, Hepacivirus hominis; conditions: Huh-7, 120 h
[19] = molecular target: Cytochrome P450 2C9 (Homo sapiens, UniProt P11712); assay: Inhibition of human CYP2C9 using sulfaphenazole […]; type: ADME
[20] = test system: cytochrome c oxidase subunit 2 DNA (mitochondrial DNA) levels; assay: Mitochondrial toxicity in human HepG2 cells assessed as inhibition of cytochrome c oxidase subunit 2 DNA levels at 50 uM measured on day 14 by RT-PCR method relative to nuclear beta-actin DNA levels; type: cell-based
[21] = test system: cytochrome c oxidase subunit 2 DNA (mitochondrial DNA) levels; assay: in vitro; conditions: human, HepG2 cells
[22] = molecular target: Cytochrome P450 2D6 (Homo sapiens, UniProt P10635); assay: Inhibition of human CYP2D6 using quinidine […]; type: ADME
[23] = test system: HepG2; assay: Mitochondrial toxicity in human HepG2 cells assessed as cytochrome c oxidase subunit 2 DNA levels at 25 uM measured on day 14 by RT-PCR method relative to nuclear beta-actin DNA levels; type: cell-based; conditions: hepg2, 25 µM
[24] = test system: HepG2; assay: Mitochondrial toxicity in human HepG2 cells assessed as cytochrome c oxidase subunit 2 DNA levels at 10 uM measured on day 14 by RT-PCR method relative to nuclear beta-actin DNA levels; conditions: hepg2, 10 µM
[25] = test system: Hepatitis C virus; assay: Selectivity ratio of EC90 for HCV genotype 1b harboring NS5B S282T mutant to EC90 for HCV genotype 1b harboring wild type NS5B; type: functional, Hepacivirus hominis
[26] = test system: Hepatitis C virus; assay: Antiviral activity against HCV genotype 4 infected in human HuH7 cells assessed as inhibition of viral RNA replication after 96 hrs by RT-PCR method; type: functional, cell-based, Hepacivirus hominis; conditions: genotype 4, Huh-7, 96 h
[27] = test system: Hepatitis C virus; assay: Antiviral activity against HCV genotype 2b infected in human HuH7 cells assessed as inhibition of viral RNA replication after 96 hrs by RT-PCR method; type: functional, cell-based, Hepacivirus hominis; conditions: Huh-7, 96 h
[28] = Cytotoxicity against human PBMC assessed as inhibition of cell proliferation after 5 days by MTT assay; type: cell-based
[29] = Cytotoxicity against African green monkey Vero cells assessed as inhibition of cell proliferation after 3 days by MTT assay; type: cell-based; conditions: chlorocebus sabaeus
[30] = test system: nuclear DNA levels; assay: Cytotoxicity against human HepG2 cells assessed as inhibition of nuclear DNA levels at 50 uM measured on day 14 by RT-PCR method relative to nuclear beta-actin DNA levels; type: cell-based; conditions: read-out: INH
[31] = test system: HepG2; assay: Cytotoxicity against human HepG2 cells assessed as inhibition of nuclear DNA levels measured on day 14 by RT-PCR method; conditions: HepG2, 336 h
[32] = test system: Hepatitis C virus; assay: Antiviral activity against HCV genotype 3a infected in human HuH7 cells assessed as inhibition of viral RNA replication after 96 hrs by RT-PCR method; type: functional, cell-based, Hepacivirus hominis; conditions: Huh-7, 96 h
[33] = molecular target: T2, Cytochrome P450 1A2 (Homo sapiens, UniProt P05177); assay: Inhibition of human CYP1A2 using alpha-naphthoflavone […]; type: ADME
T2 sequence (P05177 whole entry): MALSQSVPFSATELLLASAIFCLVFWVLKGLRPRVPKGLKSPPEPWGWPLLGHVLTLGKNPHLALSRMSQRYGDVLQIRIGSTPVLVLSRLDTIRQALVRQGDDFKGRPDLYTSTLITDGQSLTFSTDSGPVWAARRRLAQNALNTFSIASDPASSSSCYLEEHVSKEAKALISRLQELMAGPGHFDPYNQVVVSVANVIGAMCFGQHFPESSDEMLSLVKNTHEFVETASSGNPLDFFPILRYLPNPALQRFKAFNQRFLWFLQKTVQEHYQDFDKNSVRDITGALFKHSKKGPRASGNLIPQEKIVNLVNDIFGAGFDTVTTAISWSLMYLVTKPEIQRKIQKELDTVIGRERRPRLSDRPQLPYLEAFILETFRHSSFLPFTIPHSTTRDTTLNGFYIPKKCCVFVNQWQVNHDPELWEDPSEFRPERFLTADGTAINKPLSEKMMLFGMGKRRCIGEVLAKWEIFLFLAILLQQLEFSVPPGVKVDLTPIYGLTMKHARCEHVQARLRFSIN

[34] = test system: Hepatitis C virus; assay: Antiviral activity against HCV genotype 1a infected in human HuH7 cells assessed as inhibition of viral RNA replication after 96 hrs by RT-PCR method; type: functional, cell-based, Hepacivirus hominis; conditions: subtype 1a, Huh-7, 96 h

Cytochrome P450 2D6, sequence (P10635 whole entry): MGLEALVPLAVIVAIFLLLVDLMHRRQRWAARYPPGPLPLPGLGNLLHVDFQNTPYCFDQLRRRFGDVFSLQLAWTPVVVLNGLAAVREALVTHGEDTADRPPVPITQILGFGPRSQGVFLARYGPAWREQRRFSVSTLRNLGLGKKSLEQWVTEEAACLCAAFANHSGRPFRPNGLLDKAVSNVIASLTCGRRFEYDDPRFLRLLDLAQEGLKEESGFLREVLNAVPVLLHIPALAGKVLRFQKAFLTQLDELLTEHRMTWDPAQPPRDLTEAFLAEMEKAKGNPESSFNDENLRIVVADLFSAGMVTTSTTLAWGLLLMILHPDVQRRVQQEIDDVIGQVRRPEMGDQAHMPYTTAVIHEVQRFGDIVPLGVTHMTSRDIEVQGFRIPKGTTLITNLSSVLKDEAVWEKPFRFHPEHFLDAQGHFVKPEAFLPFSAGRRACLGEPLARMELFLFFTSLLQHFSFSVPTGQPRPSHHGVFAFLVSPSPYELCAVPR
Cytochrome P450 3A4, sequence (P08684 whole entry): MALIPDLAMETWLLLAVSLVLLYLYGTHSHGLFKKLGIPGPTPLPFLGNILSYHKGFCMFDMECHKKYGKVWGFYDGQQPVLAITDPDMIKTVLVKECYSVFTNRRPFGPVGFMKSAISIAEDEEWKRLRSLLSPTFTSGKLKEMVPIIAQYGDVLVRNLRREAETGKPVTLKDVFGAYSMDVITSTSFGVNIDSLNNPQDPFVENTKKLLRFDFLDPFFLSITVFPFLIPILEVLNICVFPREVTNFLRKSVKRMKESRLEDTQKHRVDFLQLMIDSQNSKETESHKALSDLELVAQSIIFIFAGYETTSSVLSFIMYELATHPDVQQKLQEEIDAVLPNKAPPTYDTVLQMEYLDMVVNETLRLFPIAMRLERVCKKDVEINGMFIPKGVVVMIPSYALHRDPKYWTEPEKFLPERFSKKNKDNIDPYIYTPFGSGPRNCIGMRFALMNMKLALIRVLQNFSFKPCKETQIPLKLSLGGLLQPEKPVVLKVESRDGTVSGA
DNA-directed RNA polymerase, mitochondrial (Homo sapiens), sequence (O00411 whole entry): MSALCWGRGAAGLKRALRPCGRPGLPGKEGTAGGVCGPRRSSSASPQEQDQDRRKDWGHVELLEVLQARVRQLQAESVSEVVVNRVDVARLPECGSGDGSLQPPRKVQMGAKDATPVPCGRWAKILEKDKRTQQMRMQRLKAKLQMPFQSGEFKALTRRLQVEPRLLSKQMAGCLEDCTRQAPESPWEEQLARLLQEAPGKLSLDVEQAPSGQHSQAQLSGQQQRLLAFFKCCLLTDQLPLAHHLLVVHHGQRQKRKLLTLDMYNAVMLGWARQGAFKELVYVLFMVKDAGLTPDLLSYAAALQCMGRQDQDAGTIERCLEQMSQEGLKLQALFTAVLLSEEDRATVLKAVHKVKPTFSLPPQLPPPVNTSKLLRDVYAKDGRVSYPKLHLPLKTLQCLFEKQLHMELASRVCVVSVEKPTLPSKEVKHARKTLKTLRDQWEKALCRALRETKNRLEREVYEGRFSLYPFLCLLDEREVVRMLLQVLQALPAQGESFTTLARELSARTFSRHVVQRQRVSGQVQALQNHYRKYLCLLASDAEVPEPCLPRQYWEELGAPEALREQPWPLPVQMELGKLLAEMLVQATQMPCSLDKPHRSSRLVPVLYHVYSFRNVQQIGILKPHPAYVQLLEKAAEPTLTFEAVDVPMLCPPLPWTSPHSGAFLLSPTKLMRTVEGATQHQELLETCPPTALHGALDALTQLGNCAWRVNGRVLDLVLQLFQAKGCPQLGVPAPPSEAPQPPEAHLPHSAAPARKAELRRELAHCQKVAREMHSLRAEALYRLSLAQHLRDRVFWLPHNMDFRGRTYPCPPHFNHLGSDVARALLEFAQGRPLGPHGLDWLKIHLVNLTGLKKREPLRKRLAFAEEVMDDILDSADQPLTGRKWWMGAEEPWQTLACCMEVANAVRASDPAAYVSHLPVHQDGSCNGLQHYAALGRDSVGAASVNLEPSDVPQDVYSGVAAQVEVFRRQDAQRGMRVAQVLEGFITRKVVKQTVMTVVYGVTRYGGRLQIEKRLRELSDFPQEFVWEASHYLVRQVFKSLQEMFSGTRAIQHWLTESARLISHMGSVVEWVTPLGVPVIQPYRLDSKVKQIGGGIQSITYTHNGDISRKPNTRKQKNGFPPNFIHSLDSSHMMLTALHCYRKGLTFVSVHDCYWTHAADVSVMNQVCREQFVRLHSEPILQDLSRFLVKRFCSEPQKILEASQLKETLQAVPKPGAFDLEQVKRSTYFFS
Cytochrome P450 2C9, sequence (P11712 whole entry): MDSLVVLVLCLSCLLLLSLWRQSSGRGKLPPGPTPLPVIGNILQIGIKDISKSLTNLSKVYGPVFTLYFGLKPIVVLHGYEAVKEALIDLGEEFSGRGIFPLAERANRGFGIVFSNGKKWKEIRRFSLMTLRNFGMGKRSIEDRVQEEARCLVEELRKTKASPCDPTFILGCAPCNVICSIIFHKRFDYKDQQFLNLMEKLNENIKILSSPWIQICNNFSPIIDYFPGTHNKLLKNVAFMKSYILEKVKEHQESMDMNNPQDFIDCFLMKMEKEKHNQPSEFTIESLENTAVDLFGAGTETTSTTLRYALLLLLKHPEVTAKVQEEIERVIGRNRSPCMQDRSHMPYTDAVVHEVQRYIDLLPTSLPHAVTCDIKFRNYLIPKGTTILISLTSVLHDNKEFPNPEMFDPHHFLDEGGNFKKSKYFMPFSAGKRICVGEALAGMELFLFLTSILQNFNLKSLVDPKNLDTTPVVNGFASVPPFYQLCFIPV

## C[C@@]1(F)[C@H](O)[C@@H](COP(=O)(O)OP(=O)(O)OP(=O)(O)O)O[C@H]1n1ccc(=O)[nH]c1=O [GS-461203]
[1]
  Activity: 3.1%
[2]
  IC50: > 100000 nM
[3]
  IC50: > 100000 nM
[4]
  IC50: > 100000 nM
[5]
  IC50: > 100000 nM

## CC(C)OC(=O)[C@H](C)N[P@](=O)(OC[C@H]1O[C@@H](n2ccc(=O)[nH]c2=O)[C@](C)(F)[C@@H]1O)Oc1ccccc1 [SOFOSBUVIR]
[6]
  Activity: 255%
[7]
  inhibition at 14 days, 25 µM: < 1%
[8]
  IC50: 20 nM
[9]
  IC50: 8400 nM
[10]
  Ratio EC50: 4.4
[11]
  cytotoxicity at 14 days, 25 µM: 38.3%
[12]
  cytotoxicity at 14 days, 10 µM: 7.3%
[13]
  EC50: 400 nM
  EC90: 1000 nM
[14]
  CC50 at 96 h: > 100000 nM
[15]
  CC50 at 96 h: > 10000 nM
[16]
  IC50: 60 nM
[17]
  IC50 at 14 days: > 50000 nM
[18]
  EC50: 90 to 200 nM
  EC90: 300 to 500 nM
[19]
  IC50: 60000 nM
[20]
  inhibition at 14 days, 50 µM: < 1%
[21]
  inhibition at 14 days, 10 µM: < 1%
[22]
  IC50: > 100000 nM
[23]
  Activity: 187%
[24]
  Activity: 176%
[25]
  Selectivity ratio: 3
[26]
  IC50: 70 nM
[27]
  IC50: 40 nM
[28]
  CC50 at 120 h: > 100000 nM
[29]
  CC50 at 72 h: > 100000 nM
[30]
  cytotoxicity at 14 days, 50 µM: 38.8%
[31]
  IC50: > 50000 nM
[32]
  IC50: 90 nM
[33]
  IC50: > 100000 nM
[34]
  IC50: 60 nM

From ChEMBL document CHEMBL4014354, “2'-Chloro,2'-fluoro Ribonucleotide Prodrugs with Potent Pan-genotypic Activity against Hepatitis C Virus Replication in Culture” (J Med Chem, 2017)
